Laboratory results taken from the NIST ThermoML archive (doi:10.1016/j.fluid.2009.09.015).
± gives the expanded uncertainty stated by the source.

Key:
[1] = Liquid; for mass density: 298 K, Vibrating tube method; for mass density / viscosity: 101.33 kPa; for viscosity: 298.15 K, Capillary tube (Ostwald / Ubbelohde) method; for Normal boiling temperature: Ebulliometric method (Recirculating still)
[2] = refractive index (Na D-line) (dimensionless); settings: 298.15 K; 101.33 kPa; Liquid; ATAGO RX-5000 refractometer with Hero Therm thermostat
[3] = refractive index (Na D-line) (dimensionless); xn = mol fraction of the nth substance listed; settings: 298.15 K, 101 kPa, Liquid, ATAGO RX-5000 refractometer with Hero Therm thermostat
[4] = xn = mol fraction of the nth substance listed; settings: 298.15 K, 101 kPa, Liquid; for viscosity: Capillary tube (Ostwald / Ubbelohde) method; for mass density: Vibrating tube method

CCCCCCCCn1cc[n+](C)c1.O=S(=O)([N-]S(=O)(=O)C(F)(F)F)C(F)(F)F
Settings | mass density [kg/m3] | refractive index | viscosity [mPa·s]
[1] | 1320.59 ± 0.25 | – | 92.51 ± 1.3
[2] | – | 1.43298 ± 0.00013 | –

CCCCCCCCn1cc[n+](C)c1.O=S(=O)([N-]S(=O)(=O)C(F)(F)F)C(F)(F)F + CC(=O)OC(C)C
Settings | mass density, [4] [kg/m3] | refractive index, [3] | viscosity, [4] [mPa·s]
x2 = 0.0415 | 1314.43 ± 0.65 | 1.43222 ± 0.00014 | 81.81 ± 1.4
x2 = 0.0984 | 1305.77 ± 0.68 | 1.4313 ± 0.00015 | 70.33 ± 1.2
x2 = 0.1644 | 1294.72 ± 0.73 | 1.43009 ± 0.00015 | 58.16 ± 0.95
x2 = 0.2055 | 1287.14 ± 0.83 | 1.42923 ± 0.00016 | 51.89 ± 0.81
x2 = 0.301 | 1267.67 ± 0.92 | 1.42702 ± 0.00016 | 38.25 ± 0.69
x2 = 0.3956 | 1244.68 ± 1.1 | 1.42458 ± 0.00018 | 26.57 ± 0.52
x2 = 0.4996 | 1214.35 ± 1.3 | 1.42091 ± 0.0002 | 17.09 ± 0.38
x2 = 0.5837 | 1184.33 ± 1.7 | 1.41742 ± 0.00023 | 11.42 ± 0.25
x2 = 0.7048 | 1129.29 ± 2.1 | 1.41083 ± 0.00028 | 5.785 ± 0.17
x2 = 0.8036 | 1068.65 ± 2.9 | 1.40324 ± 0.00039 | 2.993 ± 0.097
x2 = 0.8991 | 988.94 ± 3.3 | 1.39275 ± 0.00045 | 1.389 ± 0.069

CCCCCCCCn1cc[n+](C)c1.O=S(=O)([N-]S(=O)(=O)C(F)(F)F)C(F)(F)F + CC(C)O
Settings | mass density, [4] [kg/m3] | refractive index, [3] | viscosity, [4] [mPa·s]
x2 = 0.0331 | 1316.64 ± 0.57 | 1.43251 ± 0.00014 | 85.24 ± 1.5
x2 = 0.066 | 1312.4 ± 0.58 | 1.43205 ± 0.00014 | 78.1 ± 1.3
x2 = 0.105 | 1307.22 ± 0.62 | 1.43149 ± 0.00014 | 71.48 ± 1.1
x2 = 0.1823 | 1295.84 ± 0.68 | 1.43031 ± 0.00015 | 60.13 ± 0.89
x2 = 0.2732 | 1280.29 ± 0.75 | 1.42862 ± 0.00015 | 47.98 ± 0.78
x2 = 0.3284 | 1269.48 ± 0.89 | 1.42746 ± 0.00016 | 39.87 ± 0.63
x2 = 0.4097 | 1250.88 ± 1.1 | 1.42551 ± 0.00017 | 33.13 ± 0.51
x2 = 0.5055 | 1224.13 ± 1.2 | 1.42269 ± 0.00018 | 24.79 ± 0.43
x2 = 0.5848 | 1196.42 ± 1.6 | 1.41988 ± 0.00021 | 19.09 ± 0.34
x2 = 0.6747 | 1155.99 ± 2.2 | 1.41568 ± 0.00026 | 13.79 ± 0.26
x2 = 0.7832 | 1087.54 ± 3.3 | 1.40856 ± 0.00037 | 8.606 ± 0.19
x2 = 0.8966 | 972.52 ± 4.1 | 1.39645 ± 0.00045 | 4.615 ± 0.15

CC(=O)OC(C)C [1-methylethyl ethanoate]
Settings | Normal boiling temperature [°C] | mass density [kg/m3] | refractive index | viscosity [mPa·s]
[1] | 88.30 ± 0.04 | 866.21 ± 0.11 | – | 0.481 ± 0.006
[2] | – | – | 1.3748 ± 0.00014 | –

CC(=O)OC(C)C [1-methylethyl ethanoate] + CC(C)O
Settings | mass density, [4] [kg/m3] | refractive index, [3] | viscosity, [4] [mPa·s]
x1 = 0.1199 | 793.54 ± 0.43 | 1.37417 ± 0.00013 | 1.278 ± 0.019
x1 = 0.2041 | 802.03 ± 0.42 | 1.37374 ± 0.00013 | 1.021 ± 0.016
x1 = 0.294 | 810.58 ± 0.39 | 1.37344 ± 0.00013 | 0.812 ± 0.012
x1 = 0.3802 | 818.32 ± 0.37 | 1.3733 ± 0.00012 | 0.722 ± 0.009
x1 = 0.4855 | 827.39 ± 0.36 | 1.37331 ± 0.00012 | 0.635 ± 0.008
x1 = 0.5877 | 835.68 ± 0.34 | 1.37339 ± 0.00012 | 0.563 ± 0.007
x1 = 0.7138 | 845.52 ± 0.33 | 1.37369 ± 0.00012 | 0.538 ± 0.007
x1 = 0.7681 | 849.64 ± 0.32 | 1.37383 ± 0.00012 | 0.515 ± 0.006
x1 = 0.8777 | 857.56 ± 0.31 | 1.37419 ± 0.00012 | 0.5 ± 0.006

CC(C)O [propan-2-ol]
Settings | Normal boiling temperature [°C] | mass density [kg/m3] | refractive index | viscosity [mPa·s]
[1] | 82.22 ± 0.04 | 780.88 ± 0.15 | – | 2.073 ± 0.024
[2] | – | – | 1.37502 ± 0.00033 | –
